Measurements: paper PMC12348691, “Amesilide, a New Bicyclic Polyketide from the Marine Fungus Amesia nigricolor MUT6601” (Molecules, 2025)
Converted amounts (≈) assume the structure as drawn. Where two headings read alike, the source gives them in different places.

Columns and labels:
[1] = system: all fungi (C. krusei CK1 and C. albicans CA01); test: Antifungal assay, positive control, all fungi; assay type: cell-based; settings: Pichia kudriavzevii
Procedure: (§1) Stock solutions of all compounds were prepared in DMSO. Two bacterial (E. coli UTI89 and S. aureus S25) and two yeast strains (C. krusei CK1 and C. albicans CA01) have been used for this study. […] Each culture was diluted 12 times to have a final OD value of 0.1. Then, 100 µL from the diluted (OD of 0.1) bacterial culture and 0.5 μL of each stock solution was added to the corresponding wells (in triplicate) in a 96-well plate to a final concentration of 50 μM. For the antifungal assay, the two strains C. krusei CK1 and C. albicans CA01 were spread on Petri plates with YPD (yeast-extract peptone dextrose) agar. Later, an isolated colony was collected in a tube containing 5mL of RGM (RPMI 1640® (21875, Invitrogen GIBCO®) + 34.56g/L MOPS) to have an OD of 0.05. The fungal culture and stock solutions of compounds were diluted and added to the wells as indicated for the antibacterial activity assay. To determine the potential inhibitory effect of extracts on fungal growth, absorbance at t = 0 h, t = 20 h (for antibacterial assay), and t = 48 h (for antifungal assay) were measured with the Biotek Synergy 2 Plate Reader at a wavelength of 600 nm and analyzed with the software Gen5 v3.08. Then, the differential OD was calculated (ODT48/20-ODT0) and compared to solvent control. […] Ampicillin was used as positive control (MIC of 0.5 µg/mL for all bacteria and 1.0 µg/mL for all fungi).

[2] = system: Staphylococcus aureus (S25); test: Antibacterial assay (MIC/MBC), Staphylococcus aureus S25; assay type: cell-based; settings: for MIC: 20 h
Procedure: as §1

Escherichia coli (UTI89) = test: Antibacterial assay (MIC), Escherichia coli UTI89; assay type: cell-based; settings: 20 h
Procedure: as §1

[3] = system: peripheral blood mononuclear cells (PBMC); test: Cytotoxicity assay (AlamarBlue), PBMC; assay type: cell-based, human; settings: PBMC primary cells
Procedure: (§2) Human erythrocytes (RBC), human monocytes (THP-1), and peripheral blood mononuclear cells (PBMC) were used for this study. THP-1 cells (TIB-202) were obtained from ATCC (https://www.atcc.org (accessed on 26 January 2025)) and activated with PMA (phorbol myristate acetate) (100 ng/mL) for 48 h. Cells were grown in RPMI 1640 medium supplemented with fetal bovine serum (FBS) 10% (10270-098, GIBCO®) and penicillin/streptomycin (1%) (15140-122 GIBCO®) at 37 °C under 5% CO2 atmosphere.
(§3) For the cytotoxicity assay, THP-1 and PBMC medium cultures were added into 96-well plates with 5 × 10^3 cells per well. A two-fold dilution concentration series of each compound was added to the plates to final concentrations of 200 − 6.25 μM. AlamarBlue (DAL1025, ThermoFisher, Waltham, MA, USA), a ready-to-use resazurin-based solution, was used to measure cell viability after treatment with the extracts. A total of 10 µL was added to each well and the plate was incubated for 6–8 h at 37 °C. Fluorescence was then measured with the Biotek Synergy 2 Plate Reader using excitation at 530 nm and emission at 590 nm. The percentage of cell death was then calculated using the following formula (Equation (3)):(3) % Cellular Death = 100 × ODt − OD100/OD0 − OD100 where ODt = the fluorescence value of the test compound, OD100 = the fluorescence value for the culture medium, and OD0 = the fluorescence value for Triton 0.12%.

[4] = system: all bacteria (E. coli UTI89 and S. aureus S25); test: Antibacterial assay, positive control, all bacteria; assay type: cell-based; settings: Escherichia coli
Procedure: as §1

human monocytes (THP-1) = test: Cytotoxicity assay (AlamarBlue), THP-1; assay type: cell-based; settings: PMA-activated
Procedure: as §2, §3

human erythrocytes (RBC) = test: Hemolytic assay, human erythrocytes; assay type: cell-based; settings: for IC50: Homo sapiens, Erythrocyte, 0.5 h; for cytotoxicity against human erythrocytes (RBC): result in words
Procedure: as §2
For the hemolytic assay, freshly obtained human erythrocytes (RBCs) from patients were washed twice with PBS (pH 7.4). This assay was performed at 10% hematocrit with two-fold serial dilutions from 200 μM of test compounds in a final volume of 100 μL, followed by incubation at 37 °C under 5% CO2 atmosphere for 30 min. Later, the plates were centrifugated at 3000g for 5 min and supernatant was transferred onto a new 96-well plate. Finally, RBC lysis was determined by the absorbance of the supernatant at 540 nm. Results were calculated with the following formula (Equation (2)):(2) % hemolysis = 100 × ODt − OD100/OD0 − OD100 where ODt = the absorbance value of test compounds; OD100 = the absorbance value of the medium; and OD0 = the absorbance value of the wells treated with 1% Triton-X.

[5] = system: Leishmania infantum (LI01); test: Antiparasitic activity (MIC), Leishmania infantum LI01; assay type: cell-based
Candida albicans (CA01) = test: Antifungal assay (MIC), Candida albicans CA01; assay type: cell-based; settings: 48 h
Procedure: as §1

(CK01) = test: Antifungal assay (MIC), Candida strain CK01; assay type: cell-based, Candida tropicalis; settings: 48 h
[6] = system: Niemann-Pick C1-like 1 (NPC1L1) protein; design: method as in PMID 30665368; settings: reducing the cholesterol absorption; cited from earlier work
Staphylococcus aureus = settings: result in words; cited from earlier work
[7] = Staphylococcus aureus (S25), OD 600 nm, inhibiting bacterial growth, read-out: MIC
[8] = Homo sapiens, THP-1 cell line, read-out: IC50
[9] = RBC primary cells, hemolysis, 30 min, 10% hematocrit, read-out: IC50
[10] = Homo sapiens, THP-1, THP-1 cell line

Compound	MIC [2, 7] [µM]	IC50 ([3]; Homo sapiens, read-out: IC50) [µM]	IC50 (human monocytes (THP-1); [8]) [µM]	IC50 (human erythrocytes (RBC); [9]) [µM]	MIC ([5]; Leishmania infantum) [µM]	MBC ([2]; Staphylococcus aureus) [µM]	MIC ([2]; Staphylococcus aureus) [µM]	MIC (Escherichia coli (UTI89); Escherichia coli) [µM]	MIC (Candida albicans (CA01); Candida albicans) [µM]	IC50 ([3]; Homo sapiens, PBMC) [µM]	IC50 [3] [µM]	MIC ((CK01); Candida tropicalis) [µM]	IC50 (human monocytes (THP-1); [10]) [µM]	IC50 (human monocytes (THP-1); THP-1 cell line) [µM]	IC50 (human erythrocytes (RBC)) [µM]	cytotoxicity against human erythrocytes (RBC) (human erythrocytes (RBC))	also measured
CC1(C)S[C@@H]2[C@H](NC(=O)[C@H](N)c3ccccc3)C(=O)N2[C@H]1C(=O)O [Ampicillin, reference compound]	1.56	> 200	> 200	> 200													MIC [1]: 1 µg/mL; MIC (Escherichia coli (UTI89); Escherichia coli (UTI89), OD 600 nm, read-out: MIC): > 100 µM; MIC [4]: 0.5 µg/mL
C[C@@H]1Oc2cc3c(-c4c(O)cc(O)c5c(O)c6c(cc45)O[C@H](C)[C@@H](C)C6=O)c(O)cc(O)c3c(O)c2C(=O)[C@@H]1C [compound 8, chaetochromin B]	6.25				> 100	12.5	6.25	> 100	100	40	33.6 to 40	> 100	37.3	33.6 to 40	> 200	no cytotoxicity	
C[C@@H]1[C@H](O)[C@@H](C)/C=C/C=C/C=C/C=C/C=C/C=C/C=C/[C@H](O[C@@H]2O[C@H](C)[C@@H](O)[C@H](N)[C@@H]2O)C[C@@H]2O[C@](O)(C[C@@H](O)C[C@@H](O)[C@H](O)CC[C@@H](O)C[C@@H](O)CC(=O)O[C@H]1C)C[C@H](O)[C@H]2C(=O)O [Amphotericin B, reference compound]		6.25	3.13	25													MIC ([5]; Leishmania infantum (LI01), read-out: MIC): 0.39 µM (≈ 0.36 µg/mL); MIC (Candida albicans (CA01); Candida albicans (CA01), OD 600 nm, read-out: MIC): 0.2 µM; MIC ((CK01); Candida tropicalis (CK01), OD 600 nm, read-out: MIC): 0.2 µM (≈ 0.185 µg/mL)
Chamiside F																	inhibitory activity against NPC1L1 [6]: inhibitory activity
C[C@H]1Oc2cc3c(-c4c(O)cc(O)c5c(O)c6c(cc45)O[C@H](C)[C@@H](C)C6=O)c(O)cc(O)c3c(O)c2C(=O)[C@@H]1C [compound 7, chaetochromin A]	6.25				> 100	12.5	6.25	> 100	> 100	35.4	33.6 to 40	> 100	33.6	33.6 to 40	> 200	no cytotoxicity	antibacterial activity against S. aureus (Staphylococcus aureus): strong antibacterial activity
CC1=CC2(O)C(C3(C)CC(C)CC(C)C(=O)O3)CC(=O)C23C(=O)N(C)C(=O)C(c2ccccc2)C3C1C (stereo not drawn) [compound 2, chamiside A]																	antibacterial activity against Staphylococcus aureus (Staphylococcus aureus): moderate antibacterial activity
